From patent US20240174696A1, “2,8-DIAZASPIRO[4.5]DECANE COMPOUNDS” (Genentech, Inc., priority 2021, published 2024)
pEC50, pKi: −log10 of the molar value.

What was measured:
[1] = target: Human LATS2 catalytic domain (Homo sapiens (Human), UniProt Q9NRM7); test: LATS2 High ATP HTRF Assay; type: biochemical; details: no asterisk: LATS2 High ATP HTRF Assay, 5000 μM ATP, 0.05 nM LATS2
Method: Human LATS2 catalytic domain which contains the amino acids G553-V1088 (accession NP_055387) was purified in-house. The LATS2 catalytic domain was co-purified with Mob1b (accession NP_775739). The LATS2 biochemical HTRF assay was performed using the HTRF KinEASE-STK S1 Kit (Cisbio, Cat #62ST1PEC), following the protocol from the manufacturer. Compounds were dispensed by the Echo Liquid Handler (Labcyte) into a white 384-well plate (PerkinElmer, Cat #6008289). 3 uL of 2×LATS2 enzyme solution was added to the compounds, following by a 10 minute incubation at room temperature. Then, 2×ATP and STK S1 peptide solution was added to initiate the one hour enzyme reaction at room temperature. The final condition of the reaction was 0.2 nM LATS2, 50 μM ATP, 0.5 μM STK S1 peptide in 50 mM HEPES pH7.2, 10 mM MgCl2, 0.1% BGG, 0.005% Brij-35, 1 mM DTT. The reaction was quenched by adding 6 uL of the detection mixture which contained Streptavidin XL665 and STK Antibody-Cryptate (Cisbio), incubate for 1 hour at room temperature. The HTRF (665 nm/620 nm) signal was read on the Envision plater reader (PerkinElmer). The IC50 values were determined by fitting the % inhibition with a nonlinear four-parameter logistical equation. The Ki values were calculated using the Cheng-Prusoff equation for a competitive inhibitor, IC50═Ki (1+S/Km)+M [E] with ATP Km for LATS2=105 μM.
The LATS2 high ATP HTRF assay was performed using the same protocol as the Standard LATS2 HTRF assay. The final condition of the reaction was 0.05 nM LATS2, 5000 μM ATP, 0.5 μM STK S1 peptide in 50 mM HEPES pH7.2, 10 mM MgCl2, 0.1% BGG, 0.005% Brij-35, 1 mM DTT and the 2 hours enzyme reaction at room temperature.

[2] = tested on: TAZ nuclear translocation in SW1990 cells; test: TAZ Nuclear Translocation Assay; type: cell-based; details: Homo sapiens, 4 hours
Method: The SW1990 cells (ATCC, CRL2172) were seeded at 5000 cells/well by adding 30 μL/well of cells in RPMI1640, 10% FBS, 2 mM glutamine culture media to a 384-well plate (Greiner 781091). The cells were incubated overnight at 37° C. Next day, test compounds were directly added to the cells using the Echo Liquid Handler (Labcyte), incubate at 37° C. for 4 hours. The cells were fixed with 4% paraformaldehyde and incubate for 20 minutes at room temperature. After washing three times with 100 μL PBS, 0.5% Triton X-100 was added to permeabilize the cells, incubate at room temperature for 5 minutes, following by washing the cells three times with PBS. 3% BSA was added to the cells, incubate for one hour at room temperature, following by washing three times with PBS. 50 μL of 1:750 diluted rabbit Anti-TAZ (Cell signaling D316D) in 3% BSA was added to the cells, incubate at 4° C. overnight. Next day, after washing the cells three times with PBS, 50 μL of 1:1250 diluted donkey anti-Rabbit, Alexa Fluor 488 (Invitrogen A21206) and 1:6250 diluted Hoechst 33342 (Molecular Probes H-21492) in 3% BSA was added to the cells, incubate at room temperature for one hour. The cells were washed three times with PBS, then image with the CellInsight CX7 High-Content Imager. The ratio of nuclear mean fluorescence intensity and cytoplasmic ring region mean fluorescence intensity was calculated. The % inhibition was normalized using DMSO as 0% inhibition and an inhibitor control as 100% inhibition. The EC50 values were calculated by fitting the % inhibition with a nonlinear four-parameter logistical equation.

Human LATS2 catalytic domain, sequence (Q9NRM7 553-1088): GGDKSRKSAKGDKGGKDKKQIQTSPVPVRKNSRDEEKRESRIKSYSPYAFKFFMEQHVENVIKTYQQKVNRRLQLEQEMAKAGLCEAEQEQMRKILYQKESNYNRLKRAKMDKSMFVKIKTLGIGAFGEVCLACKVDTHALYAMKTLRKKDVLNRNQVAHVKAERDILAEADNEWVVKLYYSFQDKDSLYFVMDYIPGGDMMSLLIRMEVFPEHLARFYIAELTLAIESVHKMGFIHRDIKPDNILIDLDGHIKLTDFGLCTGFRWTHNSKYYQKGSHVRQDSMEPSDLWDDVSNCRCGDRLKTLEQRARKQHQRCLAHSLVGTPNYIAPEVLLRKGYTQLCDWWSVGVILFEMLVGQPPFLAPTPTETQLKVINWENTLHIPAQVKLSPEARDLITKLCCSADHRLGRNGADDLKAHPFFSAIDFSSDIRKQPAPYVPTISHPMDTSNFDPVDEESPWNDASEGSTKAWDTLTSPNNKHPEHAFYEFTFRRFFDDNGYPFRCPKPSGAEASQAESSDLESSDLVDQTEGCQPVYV
Human LATS2 catalytic domain, sequence (Q7L9L4 whole entry partner, the tested form may be a part): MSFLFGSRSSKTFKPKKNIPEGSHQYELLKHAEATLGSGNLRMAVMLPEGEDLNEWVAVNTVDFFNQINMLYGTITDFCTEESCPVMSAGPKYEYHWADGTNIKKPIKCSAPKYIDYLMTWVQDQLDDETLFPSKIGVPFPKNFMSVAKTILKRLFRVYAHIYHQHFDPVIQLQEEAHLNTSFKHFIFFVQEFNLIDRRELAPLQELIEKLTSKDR

In the case of `FCCN1CCC2(CCN(c3nc(-c4ccncc4)nc4cnccc34)CC2)C1` [Compound 134, 4-(2-(2-fluoroethyl)-2,8-diazaspiro[4.5]decan-8-yl)-2-(pyridin-4-yl)pyrido[3,4-d]pyrimidine], the pKi [1] was 9.14 and the pEC50 [2] was 5.96.

`FCCCN1CCC2(CCN(c3nc(-c4ccncc4)nc4cnccc34)CC2)C1` [Compound 135, 4-(2-(3-fluoropropyl)-2,8-diazaspiro[4.5]decan-8-yl)-2-(pyridin-4-yl)pyrido[3,4-d]pyrimidine] showed a pKi [1] of 10.20 and a pEC50 [2] of 6.38.

`N#CCCN1CCC2(CCN(c3nc(-c4ccncc4)nc4cnccc34)CC2)C1` [Compound 136, 3-(8-(2-(pyridin-4-yl)pyrido[3,4-d]pyrimidin-4-yl)-2,8-diazaspiro[4.5]decan-2-yl)propanenitrile] was tested, and the pKi [1] was 9.35 and the pEC50 [2] was 5.49.

With `c1cc(-c2nc(N3CCC4(CCN(c5cn[nH]c5)C4)CC3)c3ccncc3n2)ccn1` [Compound 141, 4-(2-(1H-pyrazol-4-yl)-2,8-diazaspiro[4.5]decan-8-yl)-2-(pyridin-4-yl)pyrido[3,4-d]pyrimidine] the pKi [1] was 8.48 and the pEC50 [2] was less than 5.00.

`Cc1n[nH]cc1-c1nc(N2CCC3(CCNC3)CC2)c2ccncc2n1` [Compound 142, 2-(3-methyl-1H-pyrazol-4-yl)-4-(2,8-diazaspiro[4.5]decan-8-yl)pyrido[3,4-d]pyrimidine] was tested, and the pKi [1] was 10.43 and the pEC50 [2] was less than 5.00.

Work on `Cc1n[nH]cc1-c1nc(N2CCC3(CCN(CCO)C3)CC2)c2ccncc2n1` [Compound 146, 2-(8-(2-(3-methyl-1H-pyrazol-4-yl)pyrido[3,4-d]pyrimidin-4-yl)-2,8-diazaspiro[4.5]decan-2-yl)ethan-1-ol] yielded a pKi [1] of 10.06 and a pEC50 [2] of 5.57.

`Cc1n[nH]cc1-c1nc(N2CCC3(CC2)CCN(C2CCOC2)C3)c2ccncc2n1` (stereo not shown) [Compound 148, 2-(3-methyl-1H-pyrazol-4-yl)-4-(2-(tetrahydrofuran-3-yl)-2,8-diazaspiro[4.5]decan-8-yl)pyrido[3,4-d]pyrimidine] showed a pKi [1] of 9.92 and a pEC50 [2] of 6.25.

Work on `Cc1n[nH]cc1-c1nc(N2CCC3(CCN(CCCO)C3)CC2)c2ccncc2n1` [Compound 149, 3-(8-(2-(3-methyl-1H-pyrazol-4-yl)pyrido[3,4-d]pyrimidin-4-yl)-2,8-diazaspiro[4.5]decan-2-yl)propan-1-ol] yielded a pKi [1] of 10.35 and a pEC50 [2] of 5.60.

`Cc1n[nH]cc1-c1nc(N2CCC3(CCN(CC(C)(C)O)C3)CC2)c2ccncc2n1` [Compound 150, 2-methyl-1-(8-(2-(3-methyl-1H-pyrazol-4-yl)pyrido[3,4-d]pyrimidin-4-yl)-2,8-diazaspiro[4.5]decan-2-yl)propan-2-o0] showed a pKi [1] of 10.23 and a pEC50 [2] of 6.55.

`Cc1n[nH]cc1-c1nc(N2CCC3(CCN(CC4COC4)C3)CC2)c2ccncc2n1` [Compound 152, 2-(3-methyl-1H-pyrazol-4-yl)-4-(2-(oxetan-3-ylmethyl)-2,8-diazaspiro[4.5]decan-8-yl)pyrido[3,4-d]pyrimidine] showed a pKi [1] of 10.28 and a pEC50 [2] of 6.08.

In the case of `Clc1[nH]ncc1-c1nc(N2CCC3(CCNC3)CC2)c2ccncc2n1` [Compound 153, 2-(5-chloro-1H-pyrazol-4-yl)-4-(2,8-diazaspiro[4.5]decan-8-yl)pyrido[3,4-d]pyrimidine], the pKi [1] was 9.96 and the pEC50 [2] was less than 5.00.

Compound `c1cc2c(N3CCC4(CCNC4)CC3)nc(-c3ccnc4[nH]ccc34)nc2cn1` [Compound 156, 2-(1H-pyrrolo[2,3-b]pyridin-4-yl)-4-(2,8-diazaspiro[4.5]decan-8-yl)pyrido[3,4-d]pyrimidine] has a pKi [1] of 9.15 and a pEC50 [2] of 5.34.

With `Cc1cc2c(N3CCC4(CCNC4)CC3)nc(-c3c[nH]nc3C)nc2cn1` [Compound 160, 6-methyl-2-(3-methyl-1H-pyrazol-4-yl)-4-(2,8-diazaspiro[4.5]decan-8-yl)pyrido[3,4-d]pyrimidine] the pKi [1] was 8.69 and the pEC50 [2] was less than 5.00.

`Clc1cncc2nc(-c3ccncc3)nc(N3CCC4(CCNC4)CC3)c12` [Compound 161, 5-chloro-2-(pyridin-4-yl)-4-(2,8-diazaspiro[4.5]decan-8-yl)pyrido[3,4-d]pyrimidine] showed a pKi [1] of 8.26 and a pEC50 [2] of 5.72.

Work on `Cc1cncc2nc(-c3ccncc3)nc(N3CCC4(CCNC4)CC3)c12` [Compound 162, 5-methyl-2-(pyridin-4-yl)-4-(2,8-diazaspiro[4.5]decan-8-yl)pyrido[3,4-d]pyrimidine] yielded a pKi [1] of 8.81 and a pEC50 [2] of 5.33.

Work on `Cc1n[nH]cc1-c1nc(N2CCC3(CCNC3)CC2)c2ccnc(C)c2n1` [Compound 163, 8-methyl-2-(3-methyl-1H-pyrazol-4-yl)-4-(2,8-diazaspiro[4.5]decan-8-yl)pyrido[3,4-d]pyrimidine] yielded a pKi [1] of 8.54 and a pEC50 [2] of less than 5.00.

In the case of `CC1NCCC12CCN(c1nc(-c3ccncc3)nc3cnccc13)CC2` (stereo not shown) [Compound 166, 4-(1-methyl-2,8-diazaspiro[4.5]decan-8-yl)-2-(pyridin-4-yl)pyrido[3,4-d]pyrimidine], the pKi [1] was 8.57 and the pEC50 [2] was 5.74.

For `CC1CC2(CCN(c3nc(-c4ccncc4)nc4cnccc34)CC2)CN1C` (stereo not shown) [Compound 168, 4-(2,3-dimethyl-2,8-diazaspiro[4.5]decan-8-yl)-2-(pyridin-4-yl)pyrido[3,4-d]pyrimidine], the pKi [1] was 8.79 and the pEC50 [2] was 6.08.

For `COC(=O)C1CC2(CCN(c3nc(-c4ccncc4)nc4cnccc34)CC2)CN1` (stereo not shown) [Compound 171, methyl 8-(2-(pyridin-4-yl)pyrido[3,4-d]pyrimidin-4-yl)-2,8-diazaspiro[4.5]decane-3-carboxylate], the pKi [1] was 8.71 and the pEC50 [2] was 5.08.

Work on `CNC(=O)C1CC2(CCN(c3nc(-c4ccncc4)nc4cnccc34)CC2)CN1` (stereo not shown) [Compound 172, N-methyl-8-(2-(pyridin-4-yl)pyrido[3,4-d]pyrimidin-4-yl)-2,8-diazaspiro[4.5]decane-3-carboxamide] yielded a pKi [1] of 9.19 and a pEC50 [2] of 5.19.

In the case of `Fc1cnccc1-c1nc(N2CCC3(CCNC3)CC2)c2ccncc2n1` [Compound 182, 2-(3-fluoropyridin-4-yl)-4-(2,8-diazaspiro[4.5]decan-8-yl)pyrido[3,4-d]pyrimidine], the pKi [1] was 8.65 and the pEC50 [2] was 5.57.

In the case of `Cc1[nH]ncc1-c1nc(N2CCC3(CCNC3)CC2)c2c(F)cncc2n1` [Compound 186, 5-fluoro-2-(5-methyl-1H-pyrazol-4-yl)-4-(2,8-diazaspiro[4.5]decan-8-yl)pyrido[3,4-d]pyrimidine], the pKi [1] was 8.65 and the pEC50 [2] was less than 5.00.

For `OC1CNCC12CCN(c1nc(-c3ccncc3)nc3cnccc13)CC2` (stereo not shown) [Compound 187, 8-(2-(pyridin-4-yl)pyrido[3,4-d]pyrimidin-4-yl)-2,8-diazaspiro[4.5]decan-4-ol], the pKi [1] was 8.84 and the pEC50 [2] was less than 5.00.

In the case of `CN1CCC2(CCN(c3nc(-c4ccncc4)nc4cnc(Cn5cc(Cl)cn5)cc34)CC2)C1` [Compound 189, 6-((4-chloro-1H-pyrazol-1-yl)methyl)-4-(2-methyl-2,8-diazaspiro[4.5]decan-8-yl)-2-(pyridin-4-yl)pyrido[3,4-d]pyrimidine], the pKi [1] was 9.12 and the pEC50 [2] was 6.27.

`Cc1n[nH]cc1-c1nc(N2CCC3(CCN(C)C3)CC2)c2cc(Cn3cc(Cl)cn3)ncc2n1` [Compound 190, 6-((4-chloro-1H-pyrazol-1-yl)methyl)-2-(3-methyl-1H-pyrazol-4-yl)-4-(2-methyl-2,8-diazaspiro[4.5]decan-8-yl)pyrido[3,4-d]pyrimidine] showed a pKi [1] of 10.59 and a pEC50 [2] of 6.96.

`OCC1CC2(CCN(c3nc(-c4ccncc4)nc4cnccc34)CC2)CN1` (stereo not shown) [Compound 196, (8-(2-(pyridin-4-yl)pyrido[3,4-d]pyrimidin-4-yl)-2,8-diazaspiro[4.5]decan-3-yl)methanol] showed a pKi [1] of 10.24 and a pEC50 [2] of 6.01.
